# Assay results reported in EP1007530B1, “6-O-SUBSTITUTED ERYTHROMYCIN COMPOUNDS AND METHOD FOR MAKING SAME” (ABBOTT LABORATORIES, priority 1996, dated 1997).
# Columns and labels:
# Experiment in all cases: In vitro assay of antibacterial activity (agar dilution MIC)
# Assay type in all cases: cell-based
# [1] = test system: Escherichia coli KNK 437; settings: BHI agar, 35-37 °C, 20 to 24 hours, unit assumed
# Protocol: (§1) Representative compounds of the present invention were assayed in vitro for antibacterial activity as follows: Twelve petri dishes containing successive aqueous dilutions of the test compound mixed with 10 mL of sterilized Brain Heart Infusion (BHI) agar (Difco 0418-01-5) were prepared. Each plate was inoculated with 1:100 (or 1:10 for slow-growing strains, such as Micrococcus and Streptococcus) dilutions of up to 32 different microorganisms, using a Steers replicator block. The inoculated plates were incubated at 35-37 °C for 20 to 24 hours, In addition, a control plate, using BHI agar containing no test compound, was prepared and incubated at the beginning and end of each test.
# (§2) An additional plate containing a compound having known susceptibility patterns for the organisms being tested and belonging to the same antibiotic class as the test compound was also prepared and incubated as a further control, as well as to provide test-to-test comparability. Erythromycin A was used for this purpose.
# (§3) After incubation, each plate was visually inspected. The minimum inhibitory concentration (MIC) was defined as the lowest concentration of drug yielding no growth, a slight haze, or sparsely isolated colonies on the inoculum spot as compared to the growth control. […]
# [2] = test system: Micrococcus luteus ATCC 9341; settings: BHI agar, 35-37 °C, 20 to 24 hours, unit assumed
# Protocol: as §1, §2, §3
# [3] = test system: Candida albicans CCH 442; settings: BHI agar, 35-37 °C, 20 to 24 hours, unit assumed
# Protocol: as §1, §2, §3
# [4] = test system: Pseudomonas aeruginosa 5007; settings: BHI agar, 35-37 °C, 20 to 24 hours, unit assumed
# Protocol: as §1, §2, §3
# [5] = test system: Pseudomonas aeruginosa DPHD-2862; settings: BHI agar, 35-37 °C, 20 to 24 hours, unit assumed
# Protocol: as §1, §2, §3
# [6] = test system: Providencia struartii CMX 640; settings: BHI agar, 35-37 °C, 20 to 24 hours, unit assumed
# Protocol: as §1, §2, §3
# [7] = test system: Pseudomonas aeruginosa K799/61; settings: BHI agar, 35-37 °C, 20 to 24 hours, unit assumed
# Protocol: as §1, §2, §3
# [8] = test system: Streptococcus agalactiae CMX 508; settings: BHI agar, 35-37 °C, 20 to 24 hours, unit assumed
# Protocol: as §1, §2, §3
# [9] = test system: Staphylococcus aureus ATCC 6538P; settings: BHI agar, 35-37 °C, 20 to 24 hours, unit assumed
# Protocol: as §1, §2, §3
# [10] = test system: Staphylococcus aureus A-5278; settings: BHI agar, 35-37 °C, 20 to 24 hours, unit assumed
# Protocol: as §1, §2, §3
# [11] = test system: Pseudomonas aeruginosa K799/WT; settings: BHI agar, 35-37 °C, 20 to 24 hours, unit assumed
# Protocol: as §1, §2, §3
# [12] = test system: Mycobacterium smegmatis ATCC 114; settings: BHI agar, 35-37 °C, 20 to 24 hours, unit assumed
# Protocol: as §1, §2, §3
# [13] = test system: Enterobacter aerogenes ATCC 13048; settings: BHI agar, 35-37 °C, 20 to 24 hours, unit assumed
# Protocol: as §1, §2, §3
# [14] = test system: Pseudomonas capacia 2961; settings: BHI agar, 35-37 °C, 20 to 24 hours, in µg/mL (unit assumed)
# Protocol: as §1, §2, §3
# [15] = test system: Staphylococcus aureus 1775; settings: BHI agar, 35-37 °C, 20 to 24 hours, unit assumed
# Protocol: as §1, §2, §3
# [16] = test system: Escherichia coli JUHL; settings: BHI agar, 35-37 °C, 20 to 24 hours, in µg/mL (unit assumed)
# Protocol: as §1, §2, §3
# [17] = test system: Pseudomonas aeruginosa DPHD-5263; settings: BHI agar, 35-37 °C, 20 to 24 hours, in µg/mL (unit assumed)
# Protocol: as §1, §2, §3
# [18] = test system: Enterococcus faecium ATCC 8043; settings: BHI agar, 35-37 °C, 20 to 24 hours, unit assumed
# Protocol: as §1, §2, §3
# [19] = test system: Staphylococcus aureus NCTC10649M; settings: BHI agar, 35-37 °C, 20 to 24 hours, unit assumed
# Protocol: as §1, §2, §3
# [20] = test system: Staphylococcus epidermidis 3519; settings: BHI agar, 35-37 °C, 20 to 24 hours, unit assumed
# Protocol: as §1, §2, §3
# [21] = test system: Streptococcus pyogenes PIU 2548; settings: BHI agar, 35-37 °C, 20 to 24 hours, unit assumed
# Protocol: as §1, §2, §3
# [22] = test system: Staphylococcus aureus CMX 642A; settings: BHI agar, 35-37 °C, 20 to 24 hours, unit assumed
# Protocol: as §1, §2, §3
# [23] = test system: Streptococcus pyogenes 930; settings: BHI agar, 35-37 °C, 20 to 24 hours, unit assumed
# Protocol: as §1, §2, §3
# [24] = test system: Streptococcus bovis A-5169; settings: BHI agar, 35-37 °C, 20 to 24 hours, unit assumed
# Protocol: as §1, §2, §3
# [25] = test system: Pseudomonas aeruginosa BMH10; settings: BHI agar, 35-37 °C, 20 to 24 hours, in µg/mL (unit assumed)
# Protocol: as §1, §2, §3
# [26] = test system: Escherichia coli H560; settings: BHI agar, 35-37 °C, 20 to 24 hours, unit assumed
# Protocol: as §1, §2, §3
# [27] = test system: Klebsiella pneumoniae ATCC 8045; settings: BHI agar, 35-37 °C, 20 to 24 hours, unit assumed
# Protocol: as §1, §2, §3
# [28] = test system: Actinetobacter calcoaceticus CMX 669; settings: BHI agar, 35-37 °C, 20 to 24 hours, unit assumed
# Protocol: as §1
# An additional plate containing a compound having known susceptibility patterns for the organisms being tested and belonging to the same antibiotic class as the test compound was also prepared and incubated as a further control, as well as to provide test-to-test comparability.
# as §3
# [29] = test system: Staphylococcus aureus CMX 553; settings: BHI agar, 35-37 °C, 20 to 24 hours, unit assumed
# Protocol: as §1, §2, §3
# [30] = test system: Escherichia coli DC-2; settings: BHI agar, 35-37 °C, 20 to 24 hours, unit assumed
# Protocol: as §1, §2, §3
# [31] = test system: Micrococcus luteus ATCC 4698; settings: BHI agar, 35-37 °C, 20 to 24 hours, unit assumed
# Protocol: as §1, §2, §3
# [32] = test system: Escherichia coli SS; settings: BHI agar, 35-37 °C, 20 to 24 hours, unit assumed
# Protocol: as §1, §2, §3
Compound,MIC [1] [µg/mL],MIC [2] [µg/mL],MIC [3] [µg/mL],MIC [4] [µg/mL],MIC [5] [µg/mL],MIC [6] [µg/mL],MIC [7] [µg/mL],MIC [8] [µg/mL],MIC [9] [µg/mL],MIC [10] [µg/mL],MIC [11] [µg/mL],MIC [13] [µg/mL],MIC [14],MIC [15] [µg/mL],MIC [16],MIC [17],MIC [18] [µg/mL],MIC [19] [µg/mL],MIC [20] [µg/mL],MIC [21] [µg/mL],other results
"CC[C@H]1OC(=O)[C@H](C)[C@@H](O[C@H]2C[C@@](C)(OC)[C@@H](O)[C@H](C)O2)[C@H](C)[C@@H](O[C@@H]2O[C@H](C)C[C@H](N(C)C)[C@H]2O)[C@](C)(OCC(C)=O)C[C@@H](C)C(=O)[C@H](C)[C@@H](O)[C@]1(C)O [Example 9, Compound of Formula (X); X is =O. R is 2-oxopropyl]",> 100,3.1,> 100,> 100,> 100,> 100,12.5,3.1,3.1,> 100,> 100,> 100,> 100,> 100,> 100,> 100,3.1,3.1,3.1,12.5,MIC [12]: 3.1 µg/mL; MIC [22]: 3.1 µg/mL; MIC [23]: > 100 µg/mL; MIC [24]: 3.1 µg/mL; MIC [25]: > 100; MIC [26]: > 100 µg/mL; MIC [27]: > 100 µg/mL; MIC [28]: 50 µg/mL
"Compound of Formula (XII): X is-=N-O-(1-isopropoxycyclohexyl), R is allyl, R^p is trimethylsilyl [Example 1B]",> 100,0.2,> 100,> 100,> 100,> 100,6.2,0.1,0.78,> 100,> 100,> 100,> 100,> 100,> 100,> 100,0.2,3.1,0.39,6.2,MIC [29]: 1.56 µg/mL; MIC [30]: > 100 µg/mL; MIC [31]: 3.1 µg/mL; MIC [22]: 1.56 µg/mL; MIC [32]: 3.1 µg/mL; MIC [23]: > 100 µg/mL; MIC [24]: 0.02 µg/mL; MIC [25]: > 100; MIC [26]: 100 µg/mL; MIC [27]: > 100 µg/mL; MIC [28]: 50 µg/mL
"Compound of Formula (X): X is =N-OH, R is allyl [Example 1C]",> 100,0.1,> 100,> 100,> 100,> 100,6.2,0.01,0.78,> 100,> 100,> 100,> 100,> 100,100,> 100,0.2,0.78,0.39,3.1,MIC [29]: 0.78 µg/mL; MIC [30]: > 100 µg/mL; MIC [12]: 0.2 µg/mL; MIC [31]: 1.56 µg/mL; MIC [22]: 1.56 µg/mL; MIC [32]: 0.78 µg/mL; MIC [23]: > 100 µg/mL; MIC [24]: 0.01 µg/mL; MIC [25]: > 100; MIC [26]: 100 µg/mL; MIC [27]: > 100 µg/mL; MIC [28]: 50 µg/mL
